This note sets out measurements from US7964624B1, “Inhibitors of serine proteases” (priority 2005, dated 2011).

In the test the target is T1, HCV NS3 protease domain (Hepatitis C virus genotype 1b, UniProt Q9WMX2).
T1 construct: The first 181 amino acids of NS3 (residues 1027-1207 of the viral polyprotein); hexa-histidine (C); made in house; host or cells: E. coli BL21/DE3 pLysS
Put plainly: biochemical. Particulars: Enzyme Assay 1 (HCV NS3 Protease Domain Peptide Cleavage Assay) activity, apparent Ki class.

A value given as a limit tells only on which side of the number the result lay.

T1 sequence (Q9WMX2 1027-1207, other chains not shown): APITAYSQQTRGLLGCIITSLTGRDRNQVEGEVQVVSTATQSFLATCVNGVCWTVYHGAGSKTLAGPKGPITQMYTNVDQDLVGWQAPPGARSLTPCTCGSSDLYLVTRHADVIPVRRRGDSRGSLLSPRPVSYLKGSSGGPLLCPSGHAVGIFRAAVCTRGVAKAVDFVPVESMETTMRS

As to `CCC[C@H](NC(=O)[C@@H]1C[C@]2(CC(c3cccc(Cl)c3)=NO2)CN1C(=O)[C@@H](NC(=O)Nc1ccc(N2C(=O)C=CC2=O)cc1)C(C)(C)C)C(=O)C(=O)NC1CC1` [Compound 128], the Ki is 100 to 500 nM.
Regarding `CCC[C@H](NC(=O)[C@@H]1C[C@]2(CC(c3cccc(Cl)c3)=NO2)CN1C(=O)[C@@H](NC(=O)c1cn(C(C)C)c2ccccc2c1=O)C(C)(C)C)C(=O)C(=O)NC1CC1` [Compound 135], the Ki was over 500 nM.
For `CCC[C@H](NC(=O)[C@@H]1C[C@]2(CC(c3cccc(Cl)c3)=NO2)CN1C(=O)[C@@H](NC(=O)[C@](C)(O)c1ccccc1)C(C)(C)C)C(=O)C(=O)NC1CC1` [Compound 139], the Ki was over 500 nM.
The value for `CCC[C@H](NC(=O)[C@@H]1C[C@]2(CC(c3cccc(Cl)c3)=NO2)CN1C(=O)[C@@H](NC(=O)CC1CCCCC1)C(C)(C)C)C(=O)C(=O)NCC` [Compound 140] was 100 to 500 nM.
The value for `C=C[C@@H]1C[C@]1(NC(=O)[C@@H]1C[C@]2(CC(c3cccc(Cl)c3)=NO2)CN1C(=O)[C@@H](NC(=O)CC1CCCCC1)C(C)(C)C)C(=O)O` [Compound 144] was over 500 nM; that for `CCC[C@H](NC(=O)[C@@H]1C[C@]2(CC(C(=O)NCC)=NO2)CN1C(=O)[C@@H](NC(=O)O[C@H]1CCOC1)C(C)(C)C)C(=O)C(=O)NC1CC1` [Compound 146] was over 500 nM; that for `CCC[C@H](NC(=O)[C@@H]1C[C@]2(CC(c3ccc4c(c3)CCC(C)(C)O4)=NO2)CN1C(=O)[C@@H](NC(=O)O[C@H]1CCOC1)C(C)(C)C)C(=O)C(=O)NC1CC1` [Compound 150] was 100 to 500 nM.
In the case of `C=CCOC(=O)N[C@H](C(=O)N1C[C@@]2(CC(c3ccccc3)=NO2)C[C@H]1C(=O)N[C@@H](CCC)C(=O)C(=O)NC1CC1)C(C)(C)C` [Compound 151], the Ki fell in the range of 100 to 500 nM.
The value for `CCC[C@H](NC(=O)[C@@H]1C[C@]2(CC(c3cccc(Cl)c3)=NO2)CN1C(=O)[C@@H](NC(=O)OCC1CCOC1)C(C)(C)C)C(=O)C(=O)NC1CC1` (stereo partly drawn) [Compound 152] was 100 to 500 nM; that for `C=CCOC(=O)N[C@H](C(=O)N1C[C@@]2(CC(c3ccc(F)cc3)=NO2)C[C@H]1C(=O)N[C@@H](CCC)C(=O)C(=O)NC1CC1)C(C)(C)C` [Compound 154] was 100 to 500 nM.
The result for `CCC[C@H](NC(=O)[C@@H]1C[C@]2(CC(c3cccc(Cl)c3)=NO2)CN1C(=O)[C@@H](NC(=O)Cc1cc(F)ccc1C)C(C)(C)C)C(=O)C(=O)NC1CC1` [Compound 155] reads over 500 nM; that for `CCC[C@H](NC(=O)[C@@H]1C[C@]2(CC(c3cccc(Cl)c3)=NO2)CN1C(=O)[C@@H](NC(=O)NCC(C)C)C(C)(C)C)C(=O)C(=O)NC1CC1` [Compound 156], under 100 nM.
As for `CCC[C@H](NC(=O)[C@@H]1C[C@]2(CC(c3cccc(Cl)c3)=NO2)CN1C(=O)c1cc2cc(OC)c(OC)cc2[nH]1)C(=O)C(=O)NC1CC1` [Compound 157], the Ki was over 500 nM.
The value for `CCC[C@H](NC(=O)[C@@H]1C[C@]2(CC(c3cccc(Cl)c3)=NO2)CN1C(=O)[C@@H](NC(=O)OCCc1ccsc1)C(C)(C)C)C(=O)C(=O)NC1CC1` [Compound 159] was 100 to 500 nM.
The value for `CCC[C@H](NC(=O)[C@@H]1C[C@]2(CC(c3cccc(Cl)c3)=NO2)CN1C(=O)[C@@H](NC(=O)c1cc(NC(C)=O)sc1C(C)=O)C(C)(C)C)C(=O)C(=O)NC1CC1` [Compound 161] was over 500 nM.
The result for `CCC[C@H](NC(=O)[C@@H]1C[C@]2(CC(c3ccccc3Cl)=NO2)CN1C(=O)[C@@H](NC(=O)OCc1ccccc1)C(C)(C)C)C(=O)C(=O)NC1CC1` [Compound 164] reads over 500 nM.
As to `CCC[C@H](NC(=O)[C@@H]1C[C@]2(CC(c3ccc(OC)cc3OC)=NO2)CN1C(=O)[C@@H](NC(=O)CC1CCCCC1)C(C)(C)C)C(=O)C(=O)NC1CC1` [Compound 166], the Ki was in the range of 100 to 500 nM.
The value for `CCC[C@H](NC(=O)[C@@H]1C[C@]2(CC(c3cccc(Cl)c3)=NO2)CN1C(=O)[C@@H](NC(=O)OCc1cccnc1C)C(C)(C)C)C(=O)C(=O)NC1CC1` [Compound 167] was 100 to 500 nM; that for `CCC[C@H](NC(=O)[C@@H]1C[C@]2(CC(c3cccc(Cl)c3)=NO2)CN1C(=O)[C@@H](NC(=O)OCc1cccc(C)c1)C(C)(C)C)C(=O)C(=O)NC1CC1` [Compound 174] was 100 to 500 nM; that for `CCC[C@H](NC(=O)[C@@H]1C[C@]2(CC(c3ccc(Br)o3)=NO2)CN1C(=O)[C@@H](NC(=O)CC1CCCCC1)C(C)(C)C)C(=O)C(=O)NC1CC1` [Compound 179] was 100 to 500 nM.
As for `CCC[C@H](NC(=O)[C@@H]1C[C@]2(CC(C)=NO2)CN1C(=O)[C@@H](NC(C)=O)C(C)(C)C)C(=O)C(=O)NC1CC1` [Compound 180], the Ki was over 500 nM.
The value for `CCC[C@H](NC(=O)[C@@H]1C[C@]2(CC(c3cccc(Cl)c3)=NO2)CN1C(=O)[C@@H](NC(=O)[C@H](OC)c1ccccc1)C(C)(C)C)C(=O)C(=O)NC1CC1` [Compound 187] was over 500 nM.
As for `CCC[C@H](NC(=O)[C@@H]1C[C@]2(CC(c3cccc(Cl)c3)=NO2)CN1C(=O)[C@@H](NC(=O)CCc1cccc(OC)c1)C(C)(C)C)C(=O)C(=O)NC1CC1` [Compound 189], the Ki is over 500 nM.
With `CCC[C@H](NC(=O)[C@@H]1C[C@]2(CC(c3cc(C)c(OC)c(C)c3)=NO2)CN1C(=O)[C@@H](NC(=O)O[C@H]1CCOC1)C(C)(C)C)C(=O)C(=O)NC1CC1` [Compound 191], the Ki is over 500 nM.
Take `CCC[C@H](NC(=O)[C@@H]1C[C@]2(CC(c3cccc(Cl)c3)=NO2)CN1C(=O)[C@@H](NC(=O)OC(C)C)C(C)(C)C)C(=O)C(=O)NC1CC1` [Compound 193]: the Ki fell in the range of 100 to 500 nM.
As to `CCCC(NC(=O)[C@@H]1C[C@]2(CC(c3ccc(OC)c(OC)c3)=NO2)CN1C(=O)[C@@H](NC(=O)O[C@H]1CCOC1)C(C)(C)C)C(=O)C(=O)NC1CC1` (stereo partly drawn) [Compound 196], the Ki fell in the range of 100 to 500 nM.
For `CCC[C@H](NC(=O)[C@@H]1C[C@]2(CC(c3cccc(Cl)c3)=NO2)CN1C(=O)[C@@H](NC(=O)Oc1ccc2c(c1)OCO2)C(C)(C)C)C(=O)C(=O)NC1CC1` [Compound 197], the Ki fell in the range of 100 to 500 nM.
The result for `CCC[C@H](NC(=O)[C@@H]1C[C@]2(CC(c3c4ccccc4cc4ccccc34)=NO2)CN1C(=O)[C@@H](NC(=O)OCc1ccccc1)C(C)(C)C)C(=O)C(=O)NC1CC1` [Compound 199] reads over 500 nM; that for `CCC[C@H](NC(=O)[C@@H]1C[C@]2(CC(c3ccccc3)=NO2)CN1C(=O)[C@@H](NC(=O)O[C@H]1CCOC1)C(C)(C)C)C(=O)C(=O)NC1CC1` [Compound 202], over 500 nM.
Take `CCC[C@H](NC(=O)[C@@H]1C[C@]2(CC(c3cccc(Cl)c3)=NO2)CN1C(=O)[C@@H](NC(=O)OCc1cc(F)cc(F)c1)C(C)(C)C)C(=O)C(=O)NC1CC1` [Compound 203]: the Ki was 100 to 500 nM.
In the case of `CCC[C@H](NC(=O)[C@@H]1C[C@]2(CC(c3cccc(Cl)c3)=NO2)CN1C(=O)CNC(=O)NCc1ccccc1)C(=O)C(=O)NC1CC1` [Compound 205], the Ki was over 500 nM.
The value for `CCC[C@H](NC(=O)[C@@H]1C[C@]2(CC(c3cccc(Cl)c3)=NO2)CN1C(=O)CNC(=O)OCC)C(=O)C(=O)NC1CC1` [Compound 207] was over 500 nM.
On to `CCC[C@H](NC(=O)[C@@H]1C[C@]2(CC(c3cccc(Cl)c3)=NO2)CN1C(=O)[C@@H](NC(=O)OCc1cccc(F)c1)C(C)(C)C)C(=O)C(=O)NC1CC1` [Compound 209], for which the Ki was in the range of 100 to 500 nM.
The result for `CCC[C@H](NC(=O)[C@@H]1C[C@]2(CC(c3cc(Cl)c(OC)cc3OC)=NO2)CN1C(=O)OCc1ccccc1Cl)C(=O)C(=O)NC1CC1` [Compound 210] reads over 500 nM; that for `CCC[C@H](NC(=O)[C@@H]1C[C@]2(CC(c3cccc(Cl)c3)=NO2)CN1C(=O)[C@@H](Nc1cccc(OC)c1)C(C)(C)C)C(=O)C(=O)NC1CC1` [Compound 214], over 500 nM; that for `CCC[C@H](NC(=O)[C@@H]1C[C@]2(CC(c3cc(F)c(F)c(F)c3)=NO2)CN1C(=O)[C@@H](NC(=O)O[C@H]1CCOC1)C(C)(C)C)C(=O)C(=O)NC1CC1` [Compound 215], 100 to 500 nM.
The result for `CCC[C@H](NC(=O)[C@@H]1C[C@]2(CC(c3cccc(Cl)c3)=NO2)CN1C(=O)[C@@H](NC(=O)C1CC(=O)N(Cc2cccs2)C1)C(C)(C)C)C(=O)C(=O)NC1CC1` (stereo partly drawn) [Compound 216] reads over 500 nM; that for `CC(C)(C)[C@H](NC(=O)CC1CCCCC1)C(=O)N1C[C@@]2(CC(c3cccc(Cl)c3)=NO2)C[C@H]1C(=O)NC(CC1CCC1)C(=O)C(N)=O` (stereo partly drawn) [Compound 217], under 100 nM.
With `CCC[C@H](NC(=O)[C@@H]1C[C@]2(CC(c3cc(C)c(OC)c(C)c3)=NO2)CN1C(=O)[C@@H](NC(=O)O[C@H]1CCOC1)C(C)(C)C)C(=O)C(=O)NC1CC1` [Compound 224], the Ki fell in the range of 100 to 500 nM.
The result for `CCC[C@H](NC(=O)[C@@H]1C[C@]2(CC(c3cccc(Cl)c3)=NO2)CN1C(=O)[C@@H](NC(=O)CCC1CCCCC1)C(C)(C)C)C(=O)C(=O)NC1CC1` [Compound 226] reads 100 to 500 nM; that for `CCC[C@H](NC(=O)[C@@H]1C[C@]2(CC(c3ccccc3)=NO2)CN1C(=O)[C@@H](NC(C)=O)C(C)(C)C)C(=O)C(=O)NC1CC1` [Compound 228], over 500 nM; that for `CCC[C@H](NC(=O)[C@@H]1C[C@]2(CC(CCC(=O)OC)=NO2)CN1C(=O)[C@@H](NC(=O)O[C@H]1CCOC1)C(C)(C)C)C(=O)C(=O)NC1CC1` [Compound 229], over 500 nM.
The value for `CCC[C@H](NC(=O)[C@@H]1C[C@]2(CC(c3c(C)oc4ccccc34)=NO2)CN1C(=O)[C@@H](NC(=O)CC1CCCCC1)C(C)(C)C)C(=O)C(=O)NC1CC1` [Compound 230] was 100 to 500 nM; that for `CNC(=O)C(=O)C(CC1CCC1)NC(=O)[C@@H]1C[C@]2(CC(c3cccc(Cl)c3)=NO2)CN1C(=O)[C@@H](NC(=O)CC1CCCCC1)C(C)(C)C` (stereo partly drawn) [Compound 231] was 100 to 500 nM; that for `CCC[C@H](NC(=O)[C@@H]1C[C@]2(CC(c3cc(F)cc(Cl)c3)=NO2)CN1C(=O)[C@@H](NC(=O)CC1CCOCC1)C(C)(C)C)C(=O)C(=O)NC1CC1` [Compound 234] was 100 to 500 nM.
